# Assay results published in patent US20250145642A1, “BICYCLIC HETEROARENES AND METHODS OF THEIR USE” (Kineta, Inc., priority 2021, published 2025).
# Target: full-length human PIKFYVE (N-terminal GST-fusion) (Homo sapiens (Human), UniProt Q9Y2I7, L932S/Q1183K/Q995L/S1033A/S696N/T998S)
# Test: PIKfyve biochemical assay (ADP-Glo Kinase assay, Carna Biosciences)
# Conditions: ADP-Glo, full-length human GST-PIKFYVE, 10 μM to 3 nM; read-out: hPIKfyve IC50
# Description: (§1) PIKfyve Biochemical Assay. The biochemical PIKfyve inhibition assays were run by Carna Biosciences according to proprietary methodology based on the Promega ADP-Glo™ Kinase assay. A full-length human PIKFYVE [1-2098(end) amino acids and S696N, L932S, Q995L, T998S, S1033A and Q1183K of the protein having the sequence set forth in NCBI Reference Sequence No. NP_055855.2] was expressed as N-terminal GST-fusion protein (265 kDa) using baculovirus expression system. GST-PIKFYVE was purified by using glutathione sepharose chromatography and used in an ADP-Glo™ Kinase assay (Promega). Reactions were set up by adding the test compound solution, substrate solution, ATP solution and kinase solution, each at 4× final concentrations. Reactions were prepared with assay buffer (50 mM MOPS, 1 mM DTT, pH7.2), mixed, and incubated in black 384 well polystyrene plates for 1 hour at room temperature. ADP-Glo™ reagent was then added for 40 minutes, followed by kinase detection reagent for an additional 40 minutes. The kinase activity was evaluated by detecting relative light units on a luminescence plate reader. Samples were run in duplicate from 10 μM to 3 nM. […] IC50 values were calculated from concentration vs % inhibition curves by fitting to a four-parameter logistic curve.
# as §1, with “The” for “PIKfyve Biochemical Assay. The”, “accession number” for “the protein having the sequence set forth in NCBI Reference Sequence No.”, “curve. […]” for “curve.”
# Chain of full-length human PIKFYVE (N-terminal GST-fusion) (Q9Y2I7 whole entry S696N/L932S/Q995L/T998S/S1033A/Q1183K, the tested form may be a part): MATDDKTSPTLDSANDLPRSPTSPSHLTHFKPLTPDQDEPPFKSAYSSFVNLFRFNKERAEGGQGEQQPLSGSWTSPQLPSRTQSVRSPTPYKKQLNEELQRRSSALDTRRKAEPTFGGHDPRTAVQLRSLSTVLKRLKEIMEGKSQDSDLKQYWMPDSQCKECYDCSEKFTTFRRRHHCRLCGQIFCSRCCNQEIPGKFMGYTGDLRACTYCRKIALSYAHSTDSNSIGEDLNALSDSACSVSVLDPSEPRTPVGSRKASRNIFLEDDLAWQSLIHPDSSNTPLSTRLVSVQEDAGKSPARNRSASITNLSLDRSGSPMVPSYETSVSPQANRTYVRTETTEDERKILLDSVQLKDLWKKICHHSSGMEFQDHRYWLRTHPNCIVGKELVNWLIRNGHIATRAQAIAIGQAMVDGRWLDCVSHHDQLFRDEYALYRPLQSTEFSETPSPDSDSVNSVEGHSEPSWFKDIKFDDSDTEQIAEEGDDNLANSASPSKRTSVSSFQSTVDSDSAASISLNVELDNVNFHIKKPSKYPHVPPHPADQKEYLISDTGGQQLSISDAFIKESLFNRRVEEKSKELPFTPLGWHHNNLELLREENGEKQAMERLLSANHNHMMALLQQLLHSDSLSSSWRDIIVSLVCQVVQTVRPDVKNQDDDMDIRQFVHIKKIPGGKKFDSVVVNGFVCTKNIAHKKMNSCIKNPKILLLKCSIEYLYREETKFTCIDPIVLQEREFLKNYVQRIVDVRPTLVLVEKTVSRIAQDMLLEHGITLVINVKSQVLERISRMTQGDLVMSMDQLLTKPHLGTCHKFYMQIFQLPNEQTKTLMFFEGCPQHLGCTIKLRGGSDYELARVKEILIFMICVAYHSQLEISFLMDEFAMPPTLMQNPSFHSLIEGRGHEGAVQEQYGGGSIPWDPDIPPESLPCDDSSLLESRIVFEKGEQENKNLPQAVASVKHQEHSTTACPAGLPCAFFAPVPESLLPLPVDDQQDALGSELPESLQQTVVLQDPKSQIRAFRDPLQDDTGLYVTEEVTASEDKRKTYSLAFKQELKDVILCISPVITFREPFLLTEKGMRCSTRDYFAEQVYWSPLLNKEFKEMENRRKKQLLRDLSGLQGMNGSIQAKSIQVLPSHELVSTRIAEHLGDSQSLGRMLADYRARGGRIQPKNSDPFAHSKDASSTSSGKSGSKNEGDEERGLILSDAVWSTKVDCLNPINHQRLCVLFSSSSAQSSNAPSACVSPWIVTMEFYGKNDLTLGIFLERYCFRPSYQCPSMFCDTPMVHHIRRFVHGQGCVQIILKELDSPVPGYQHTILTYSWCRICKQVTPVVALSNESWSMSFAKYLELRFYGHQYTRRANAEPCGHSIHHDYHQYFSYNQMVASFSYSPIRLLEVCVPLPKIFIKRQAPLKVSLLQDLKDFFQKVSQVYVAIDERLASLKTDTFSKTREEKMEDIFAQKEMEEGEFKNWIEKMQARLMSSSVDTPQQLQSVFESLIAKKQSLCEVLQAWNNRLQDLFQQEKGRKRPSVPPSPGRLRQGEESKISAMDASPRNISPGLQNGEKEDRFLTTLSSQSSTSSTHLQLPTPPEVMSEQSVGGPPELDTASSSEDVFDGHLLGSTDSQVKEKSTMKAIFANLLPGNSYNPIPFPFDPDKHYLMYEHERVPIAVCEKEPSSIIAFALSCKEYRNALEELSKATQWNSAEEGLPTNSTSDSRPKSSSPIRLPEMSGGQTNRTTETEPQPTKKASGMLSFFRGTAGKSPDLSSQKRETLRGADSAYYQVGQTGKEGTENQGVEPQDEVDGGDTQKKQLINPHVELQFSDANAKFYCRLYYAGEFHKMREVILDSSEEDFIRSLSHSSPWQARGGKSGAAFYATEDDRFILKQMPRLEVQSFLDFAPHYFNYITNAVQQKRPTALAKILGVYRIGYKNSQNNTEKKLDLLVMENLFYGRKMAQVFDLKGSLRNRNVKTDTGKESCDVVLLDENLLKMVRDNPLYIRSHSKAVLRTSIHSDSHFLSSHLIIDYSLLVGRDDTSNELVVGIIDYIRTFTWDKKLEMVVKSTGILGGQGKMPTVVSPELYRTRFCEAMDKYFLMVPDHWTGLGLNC
row,Compound,IC50 [nM]
1,"CC(C)(C)OC(=O)N1CCC(N2CCc3c(OCc4cccnc4)nc(N4CCOCC4)nc32)CC1 [Compound 5, tert-butyl 4-(2-morpholino-4-(pyridin-3-ylmethoxy)-5H-pyrrolo[2,3-d]pyrimidin-7(6H)-yl)piperidine-1-carboxylate]",> 10000
2,"c1cncc(N2CCc3c(COC4CCNC4)nc(N4CCOCC4)nc32)c1 (centres unmarked) [Compound 64, 4-(7-(pyridin-3-yl)-4-((pyrrolidin-3-yloxy)methyl)-6,7-dihydro-5H-pyrrolo[2,3-d]pyrimidin-2-yl)morpholine]",1000 to 10000
3,"CN1CCN(c2nc(N3CCOCC3)nc3c2CCN3c2cccnc2)CC1 [Compound 81, 4-(4-(4-methylpiperazin-1-yl)-7-(pyridin-3-yl)-6,7-dihydro-5H-pyrrolo[2,3-d]pyrimidin-2-yl)morpholine]",1000 to 10000
4,"c1cncc(N2CCc3c(C4CCNCC4)nc(N4CCOCC4)nc32)c1 [Compound 108, 4-(4-(piperidin-4-yl)-7-(pyridin-3-yl)-6,7-dihydro-5H-pyrrolo[2,3-d]pyrimidin-2-yl)morpholine]",1000 to 10000
5,"c1ccc(N2CCc3c(-c4cccnc4)nc(N4CCOCC4)nc32)cc1 [Compound 91, 4-(7-phenyl-4-(pyridin-3-yl)-6,7-dihydro-5H-pyrrolo[2,3-d]pyrimidin-2-yl)morpholine]",10 to 100
6,"c1cncc(N2CCc3c(C4CCOC4)nc(N4CCOCC4)nc32)c1 (centres unmarked) [Compound 89, 4-(7-(pyridin-3-yl)-4-(tetrahydrofuran-3-yl)-6,7-dihydro-6H-pyrrolo[2,3-d]pyrimidin-2-yl)morpholine]",100 to 1000
7,"CC(=O)N1CCC(COc2nc(N3CCOCC3)nc3c2CCN3c2cccnc2)C1 (centres unmarked) [Compound 36, 1-(3-(((2-morpholino-7-(pyridin-3-yl)-6,7-dihydro-5H-pyrrolo[2,3-d]pyrimidin-4-yl)oxy)methyl)pyrrolidin-1-yl)ethan-1-one]",100 to 1000
8,"c1ccc(N2CCc3c(Oc4cccnc4)nc(N4CCOCC4)nc32)cc1 [Compound 53, 4-(7-phenyl-4-(pyridin-3-yloxy)-6,7-dihydro-5H-pyrrolo[2,3-d]pyrimidin-2-yl)morpholine]",10 to 100
9,"CN1CC(COc2nc(N3CCOCC3)nc3c2CCN3c2cccnc2)C1 [Compound 39, 4-(4-((1-methylazetidin-3-yl)methoxy)-7-(pyridin-3-yl)-6,7-dihydro-5H-pyrrolo[2,3-d]pyrimidin-2-yl)morpholine]",1000 to 10000
10,"CN1CCC(N2CCc3c(OCc4cccnc4)nc(N4CCOCC4)nc32)CC1 [Compound 42, 4-(7-(1-methylpiperidin-4-yl)-4-(pyridin-3-ylmethoxy)-6,7-dihydro-5H-pyrrolo[2,3-d]pyrimidin-2-yl)morpholine]",> 10000
11,"CN1CCC(COc2nc(N3CCOCC3)nc3c2CCN3c2cccnc2)C1 (centres unmarked) [Compound 35, 4-(4-((1-methylpyrrolidin-3-yl)methoxy)-7-(pyridin-3-yl)-6,7-dihydro-6H-pyrrolo[2,3-d]pyrimidin-2-yl)morpholine]",100 to 1000
12,"c1ccc(N2CCc3c(C4CNC4)nc(N4CCOCC4)nc32)cc1 [Compound 115, 4-(4-(azetidin-3-yl)-7-phenyl-6,7-dihydro-5H-pyrrolo[2,3-d]pyrimidin-2-yl)morpholine]",100 to 1000
13,"c1ccc(N2CCc3c(OCc4ccccn4)nc(N4CCOCC4)nc32)cc1 [Compound 24, 4-(7-phenyl-4-(pyridin-2-ylmethoxy)-6,7-dihydro-5H-pyrrolo[2,3-d]pyrimidin-2-yl)morpholine]",10 to 100
14,"c1ccc(N2CCc3c(N4CCOCC4)nc(N4CCOCC4)nc32)cc1 [Compound 78, 4,4′-(7-phenyl-6,7-dihydro-5H-pyrrolo[2,3-d]pyrimidine-2,4-diyl)dimorpholine]",10 to 100
15,"c1ccc(N2CCc3c(COc4cccnc4)nc(N4CCOCC4)nc32)cc1 [Compound 59, 4-(7-phenyl-4-((pyridin-3-yloxy)methyl)-6,7-dihydro-6H-pyrrolo[2,3-d]pyrimidin-2-yl)morpholine]",100 to 1000
16,"c1cncc(N2CCc3c(N4CCN5CCOCC5C4)nc(N4CCOCC4)nc32)c1 (centres unmarked) [Compound 79, 8-(2-morpholino-7-(pyridin-3-yl)-6,7-dihydro-5H-pyrrolo[2,3-d]pyrimidin-4-yl)octahydropyrazino[2,1-c][1,4]oxazine]",1000 to 10000

row,Compound,IC50 [nM]
1,"c1ccc(N2CCc3c(OCCC4CCCO4)nc(N4CCOCC4)nc32)cc1 (centres unmarked) [Compound 30, 4-(7-phenyl-4-(2-(tetrahydrofuran-2-yl)ethoxy)-6,7-dihydro-5H-pyrrolo[2,3-d]pyrimidin-2-yl)morpholine]",100 to 1000
2,"c1ccc(N2CCc3c(-c4ccnnc4)nc(N4CCOCC4)nc32)cc1 [Compound 99, 4-(7-phenyl-4-(pyridazin-4-yl)-6,7-dihydro-5H-pyrrolo[2,3-d]pyrimidin-2-yl)morpholine]",10 to 100
3,"Fc1cccc(N2CCc3c(-c4ccoc4)nc(N4CCOCC4)nc32)c1 [Compound 93, 4-(7-(3-fluorophenyl)-4-(furan-3-yl)-6,7-dihydro-5H-pyrrolo[2,3-d]pyrimidin-2-yl)morpholine]",10 to 100
4,"CN1CCCC(COc2nc(N3CCOCC3)nc3c2CCN3c2ccccc2)C1 (centres unmarked) [Compound 28, 4-(4-((1-methylpiperidin-3-yl)methoxy)-7-phenyl-6,7-dihydro-5H-pyrrolo[2,3-d]pyrimidin-2-yl)morpholine.formate]",100 to 1000
5,"c1ccc(N2CCc3c(C4CCNC4)nc(N4CCOCC4)nc32)cc1 (centres unmarked) [Compound 116, 4-(7-phenyl-4-(pyrrolidin-3-yl)-6,7-dihydro-5H-pyrrolo[2,3-d]pyrimidin-2-yl)morpholine]",10 to 100
6,"c1cc(-c2nc(N3CCOCC3)nc3c(-c4ccncn4)c[nH]c23)ccn1 [Compound 137, 4-(4-(pyridin-4-yl)-7-(pyrimidin-4-yl)-6H-pyrrolo[3,2-d]pyrimidin-2-yl)morpholine]",10 to 100
7,"c1ccc(N2CCc3c(C4CCOC4)nc(N4CCOCC4)nc32)cc1 (centres unmarked) [Compound 87, 4-(7-phenyl-4-(tetrahydrofuran-3-yl)-6,7-dihydro-5H-pyrrolo[2,3-d]pyrimidin-2-yl)morpholine]",10 to 100
8,"c1cncc(Oc2nc(N3CCOCC3)nc3c2CCN3c2cccnc2)c1 [Compound 55, 4-(7-(pyridin-3-yl)-4-(pyridin-3-yloxy)-6,7-dihydro-5H-pyrrolo[2,3-d]pyrimidin-2-yl)morpholine]",100 to 1000
9,"c1ccc(N2CCc3c(-c4ccncc4)nc(N4CCOCC4)nc32)cc1 [Compound 92, 4-(7-phenyl-4-(pyridin-4-yl)-6,7-dihydro-5H-pyrrolo[2,3-d]pyrimidin-2-yl)morpholine]",10 to 100
10,"c1ccc(N2CCc3c(Oc4ccncc4)nc(N4CCOCC4)nc32)cc1 [Compound 54, 4-(7-phenyl-4-(pyridin-4-yloxy)-6,7-dihydro-5H-pyrrolo[2,3-d]pyrimidin-2-yl)morpholine]",10 to 100
11,"COc1cccc(C2CC2c2nc(N3CCOCC3)nc3c2CCN3c2cccnc2)c1 (centres unmarked) [Compound 122, 4-(4-(2-(3-methoxyphenyl)cyclopropyl)-7-(pyridin-3-yl)-6,7-dihydro-5H-pyrrolo[2,3-d]pyrimidin-2-yl)morpholine]",100 to 1000
12,"CN1CCCC(CCOc2nc(N3CCOCC3)nc3c2CCN3c2cccnc2)C1 (centres unmarked) [Compound 11, 4-(4-(2-(1-methylpiperidin-3-yl)ethoxy)-7-(pyridin-3-yl)-6,7-dihydro-5H-pyrrolo[2,3-d]pyrimidin-2-yl)morpholine]",10 to 100
13,"4-(7-(3-fluorophenyl)-4-(pyridin-3-ylmethoxy)-6,7-dihydro-5H-pyrrolo[2,3-d]pyrimidin-2-yl)morpholine [Compound 3]",100 to 1000
14,"CN1CCC(OCc2nc(N3CCOCC3)nc3c2CCN3c2cccnc2)C1 (centres unmarked) [Compound 66, 4-(4-((1-methylpyrrolidin-3-yloxy)methyl)-7-(pyridin-3-yl)-6,7-dihydro-5H-pyrrolo[2,3-d]pyrimidin-2-yl)morpholine]",1000 to 10000
15,"c1ccc(N2CCc3c(OCc4ccncc4)nc(N4CCOCC4)nc32)cc1 [Compound 26, 4-(7-phenyl-4-(pyridin-4-ylmethoxy)-6,7-dihydro-5H-pyrrolo[2,3-d]pyrimidin-2-yl)morpholine]",100 to 1000
16,"c1ccc(N2CCc3c(OCC4COC4)nc(N4CCOCC4)nc32)cc1 [Compound 20, 4-(4-(oxetan-3-ylmethoxy)-7-phenyl-6,7-dihydro-5H-pyrrolo[2,3-d]pyrimidin-2-yl)morpholine]",10 to 100
